What was measured:
human NSC = assay: NSC proliferation by BrdU incorporation; assay type: cell-based; conditions: preliminary in vitro study
Description: Cell Cultures. Reagents for cell culture were purchased from Invitrogen (Carlsbad, Calif.) if not otherwise specified. Human NPC were cultured as published previously ^24 in accordance with NIH guidelines and following approval by the Institutional Review Board at Johns Hopkins University and the National Institutes of Health. Briefly, human fetal brain specimens of 7-8 weeks gestation were obtained from Birth Defects Research Laboratory, University of Washington, Seattle. The tissues were then triturated into single cells after removing meninges and blood vessels. […] NSC cultures were ready for experiments 4-5 days after replating and >98% of the cells expressed the neural stem cell marker, nestin while <1% of the cells expressed glial fibrillary acidic protein (GFAP, a marker for astrocytes) or beta-III tubulin (a neuronal cell marker) as determined by immunocytochemistry.
Cell Proliferation and Differentiation Assays. Cell proliferation was assessed by BrdU incorporation. […]
MCAD-IgG Inhibits NSC Proliferation. […] The number of proliferating cells were determined by calculating the percentage of BrdU immunopositive cells. […] Cell toxicity was also evaluated using cellquanti-blue assay. […]

[1] = tested on: NSC treated with MCAD-IgG; assay: Attenuation of MCAD-IgG effect on NSC differentiation (beta-III tubulin/GFAP immunostaining); assay type: cell-based, human
Description: Cell Proliferation and Differentiation Assays. Cell proliferation was assessed by BrdU incorporation. The cells were first treated with MCAD or control antibodies for 18 hours and then for 6 hours with BrdU (Sigma) followed by immunostaining for BrdU. When subjected to differentiation, media was replaced with DMEM/F12 containing 2% FBS. The NPC were capable of differentiating into neurons (40-60%) and astrocytes (20-50%) after 4-7 days. Immunocytochemistry. Cells were fixed in 4% (w/v) paraformaldehyde and permeabilized by incubation in 0.5% (v/v) Triton X-100 in PBS (PBS-T) for 20 min. For BrdU staining, the cells were also denatured in 2N HCl at 37° C. for 30 min and rinsed twice in 0.1 M sodium borate, pH 8.5. Cells were immunostained using monoclonal anti-BrdU (1:1000; Sigma-Aldrich), monoclonal anti-β-III-tubulin (1:1000; Promega), rabbit anti-GFAP (1:1000; Sigma-Aldrich), monoclonal anti-AT-1 (1:50; Abcam, Cambridge Mass.) or rabbit anti-active caspase-3 (1:1000; Sigma-Aldrich), followed by corresponding secondary antibodies (anti-rabbit Alexa Fluor 488, 1:400; anti-mouse Alexa Fluor […], 1:400; Invitrogen) and 4′,6-diamidino-2-phenylindole (DAPI) for nuclear staining. Images were acquired on a Zeiss LSM 510 META multiphoton confocal system (Carl Zeiss). […] Neurogenesis was determined after 4 days using immunostaining for beta-III tubulin and GFAP.

NSC = assay: CellQuanti-Blue cytotoxicity assay; assay type: cell-based; conditions: higher concentrations, 10-100 uM
Description: Cytotoxicity Assays. Cytotoxicity was determined by using CellQuanti-Blue Cell Viability Assay kit (BioAssay Systems) as previously published^24. Briefly, NSCs were cultured in poly-D-lysine coated 96-well plates and used for experiments at ˜60% confluence. […] After 24 hours, CellQuanti-Blue solution (10 μl/well) was added and the cells were incubated for 1 hour. The fluorescence was quantified at an excitation wavelength of 530 nm and emission wavelength of 590 nm using a fluorescence plate reader.
MCAD-IgG Inhibits NSC Proliferation. The effect of MCAD on NSC proliferation was studied by exposing cultured human NSC to corresponding concentrations (1:500 to 1:50) of MCAD or MUC antibodies for 24 hours in the presence of BrdU for the last 6 hours. The number of proliferating cells were determined by calculating the percentage of BrdU immunopositive cells. […] Another group of NSC similarly treated with the MCAD or MUC antibodies were also immunostained for active-caspase-3 to determine if MCAD-IgG could induce apoptosis in these cells. […] Cell toxicity was also evaluated using cellquanti-blue assay. To exclude the effect of cell proliferation, NSC cultures were treated with MCAD- or MUC-IgG in growth factor-free media for 24 hours before the cellquanti-blue solution was added. […] Thus MCAD-IgG inhibited NSC proliferation without causing cell death.

AT-1 receptor = target: T1, AT-1 receptor (Homo sapiens, UniProt P30556); conditions: in vitro, IgG from pre-eclamptic patients; cited from earlier work
T1 construct: found prominent expression of the receptor on the cell surface; endogenous in cells; host or cells: human fetal brain-derived neural stem/progenitor cells (NSC/NPC), 7-8 weeks gestation
T1 sequence (P30556 1-359): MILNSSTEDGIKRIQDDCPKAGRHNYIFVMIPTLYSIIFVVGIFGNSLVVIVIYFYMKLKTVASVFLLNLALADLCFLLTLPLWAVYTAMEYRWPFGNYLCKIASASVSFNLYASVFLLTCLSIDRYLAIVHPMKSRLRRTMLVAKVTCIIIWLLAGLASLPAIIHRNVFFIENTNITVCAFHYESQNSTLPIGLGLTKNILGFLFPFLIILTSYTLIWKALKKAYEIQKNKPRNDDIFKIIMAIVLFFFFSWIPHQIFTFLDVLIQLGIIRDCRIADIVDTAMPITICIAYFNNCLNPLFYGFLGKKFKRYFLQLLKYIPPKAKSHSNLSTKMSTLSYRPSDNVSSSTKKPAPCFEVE

Fc1ccc([C@@H]2CCNC[C@H]2COc2ccc3c(c2)OCO3)cc1 [Paroxetine, paroxetine]
proliferation of NSC (human NSC): increased proliferation of NSC in a concentration-dependent manner | effect on MCAD-IgG caused inhibition of neurogenesis and enhanced astroglial differentiation ([1]; 20 nM-2 uM, 1 hour prior to MCAD-IgG (1:50), after 4 days): reversed MCAD-IgG caused inhibition of neurogenesis and enhanced astroglial differentiation

CCCc1nc2c(C)cc(-c3nc4ccccc4n3C)cc2n1Cc1ccc(-c2ccccc2C(=O)O)cc1 [Telmisartan]
toxicity in cells, cellquanti-blue (NSC): caused toxicity in cells | effect on MCAD-IgG caused changes in neuronal and astroglial differentiation ([1]; 10 nM, pretreatment 30 min prior to IgG): significantly attenuated MCAD-IgG caused effect on neuronal and astroglial differentiation

CCCCc1nc(Cl)c(CO)n1Cc1ccc(-c2ccccc2-c2nn[nH]n2)cc1 [losartan]
blockade of patient IgG-induced constriction of villus veins and arteries (AT-1 receptor): could be blocked
